Results as given in patent US8362203B2, “Non-natural peptides as models for the development of antibiotics” (priority 2009, dated 2013).
Entries after “also recorded” stand apart in the source; their conditions may differ. Marks after values point to notes of the source that are not given here. Strand notation (5' to 3'): a small letter for the sugar, then the base; units joined by * are phosphorothioate-linked, units joined directly phosphodiester-linked; [ ] holds rarer units or linkages, { } end groups; capitals alone tell only the bases. [m2G] = N2-methylguanosine (ribo); [5mC] = 5-methylcytosine; r = 2'-OH (RNA)

Assays:
[1] = tested on: GFP translation (Escherichia coli S30 extracts); assay: Coupled in vitro transcription-translation inhibition assay (GFP fluorescence); type: biochemical; conditions: for inhibitory effect on coupled in vitro transcription-translation (in words): peptide 300 μM to 2 mM, GFP fluorescence 0 min to 2 h, 37° C.
Experimental: Peptides with high frequency in the screening against wild-type h31 were synthesized. The peptides (DIRTQRE (SEQ ID NO: 6), CVRPFAL (SEQ ID NO: 4), FVRPFAL (SEQ ID NO: 7), TLWDLIP (SEQ ID NO: 3) and TYLPWPA (SEQ ID NO: 2)), were synthesized and their sequences were determined from the phage display experiments. The inhibitory effects of these peptides on cellular processes were determined by in vitro coupled transcription-translation inhibition assay. The PURExpress™ in vitro protein synthesis kit # E6800S from New England Biolabs (NEB) was used for this purpose. This kit contains all of the necessary components for the transcription and translation, except for the DNA template. The amounts of reagents from the kit were added according to the NEB manual. We used a DNA template for GFP (pRSETEmGFP plasmid) at a concentration of 10 μg/ml in a 15 μl of reaction volume. Different concentrations of peptides were added, ranging from 300 μM to 2 mM. The DNA template was added only after mixing of the peptides or streptomycin so that they can bind to their target region. For the control, streptomycin was added at a final concentration of 300 μM. The reaction was incubated in 384-well, Costar, clear-well, black plates and in situ incubated at 37° C. in the fluorometer. The amount of GFP translation was monitored at different intervals of time from 0 min to 2 h by fluorescence (excitation at 487 nm, emission at 509 nm) using a Gemini XPS microplate spectrofluorometer, (Molecular Devices).
A cell-free translation assay was used to test the inhibitory effects of the peptides on protein synthesis. The pRSETEmGFP plasmid that was used as template has an EmGFP gene under control of the T7 promoter (FIG. 48). Upon transcription with T7 polymerase, EmGFP mRNA was formed and undergoes translation by ribosomes to produce the green fluorescent protein (GFP). The degree of inhibition on transcription and translation due to the presence of peptide could be determined by measuring the level of GFP fluorescence. Escherichia coli S30 extracts were used, which contained all of the necessary factors and supplements for translation. The rate of GFP translation in the presence or absence of peptide was measured at different time intervals.

[2] = UV thermal melting of helix 31 RNA hairpin constructs (van't Hoff analysis); type: physicochemical; conditions: for ΔG° 50: standard error est. 3% (±0.2 kcal/mol)
Experimental: Thermal melting studies. The absorbance versus temperature profiles were obtained on an Aviv 14DS UV-vis spectrophotometer with a five-cuvette thermoelectric controller. Microcuvettes with two different pathlengths, 0.1 and 0.2 cm (60 and 120 μL volumes, respectively), were employed. Each set of measurements was done in triplicate. The buffer used in each experiment contained 15 mM NaCl, 20 mM sodium cacodylate, and 0.5 mM Na2EDTA (pH 7.0) unless otherwise noted. Each oligomer was dissolved in a specific volume to yield an absorbance reading just below 2.0 in a 0.1 cm pathlength cuvette. The RNA concentrations were determined from the absorbance values (260 nm) at 95° C. The absorbance data were collected at […] from 0 to 95° C. with a constant heating rate of 0.5° C./min. Thermodynamic parameters were obtained from the absorbance versus temperature profiles using the MELTWIN v. 3.5 melting curve program.^1 This program performs a van't Hoff analysis, assuming a two-state model for the transition between a native and a denatured (random coil) structure of a hairpin.
Absorbance versus temperature profiles (melting curves) were obtained at pH 7.0 for all four RNA constructs. They were analyzed in terms of ΔG°37, ΔG°50, ΔH°, ΔS°, and melting temperature (Tm),^1, 2 Representative normalized UV melting curves of the modified RNAs compared to the unmodified RNA, taken in 15 mM NaCl, 20 mM sodium cacodylate, 0.5 mM Na2EDTA (pH 7.0), are shown in FIG. 11.
The curves represent an average of five sets of data at different concentrations of RNA obtained from a five-cuvette thermoelectric controller. The melting curves for the unmodified RNA (ECh31UNMOD, blue line in panels A-C) are compared to those for the modified RNAs (pink lines: (A) ECh31WT, (B) ECh31M2G, and (C) ECh31M5C). All of the melting curves were normalized at 95° C. and absorbance measurements were taken at 260 nm (see materials and methods, section 4.5).
The melting curves are biphasic for all four RNAs (FIG. 12) with transitions at 0 to 35° C. and 40 to 80° C. […] The higher melting transitions were concentration independent, consistent with unimolecular unfolding of the hairpin structure.^3 The corresponding thermodynamic parameters for the four RNAs are given in Table 2. […] The observed order of stability of the RNAs is ECh31UNMOD>ECh31M2G>ECh31M5C>ECh31WT^a A conservative estimate of the standard error for ΔG°50 is 3% (.+−.0.2 kcal/mol)^4
The RNA samples were analyzed as five different dilutions per experiment and UV melts were also performed in triplicate for each construct. AU0-AU4 represent profiles corresponding to different dilutions of each RNA taken in 15 mM NaCl, 20 mM sodium cacodylate, 0.5 mM Na2EDTA at pH 7.0. Experiments in K^+ buffer (15 mM KCl, 20 mM cacodylic acid, 20 mM Tris [basic form], 0.5 mM Na2EDTA, pH 7.0) gave similar results (Table 3, FIG. 13).
Thermal melting studies. Preliminary experiments were performed with the unmodified human analogue (HSh31UNMOD) containing an additional G-C base-pair (denoted by g-c) similar to that of the ECh31UNMOD construct (FIG. 28).
Thermal melting studies on the human unmodified helix 31 containing the altered sequence. The absorbance versus temperature profiles were obtained at pH 7.0 in low salt conditions (35 mM Na^+) for the new analogue of helix 31 (HSh31ECstem) and analyzed in terms of the melting temperature (Tm), Δ°, ΔS° and ΔG°37. The melting curve for HSH31ECSTEM (green color curve) is biphasic with transitions at 0-35 and 45-80° C. (FIG. 37). The higher melting transition is concentration independent, consistent with unimolecular unfolding of a hairpin structure.

[3] = 15 mM NaCl, 20 mM sodium cacodylate, 0.5 mM Na2EDTA, pH 7.0
[4] = Table 2, 15 mM NaCl, 20 mM sodium cacodylate, 0.5 mM Na2EDTA, pH 7.0
[5] = Tables 3-5, NaCl buffer (15 mM NaCl, 20 mM sodium cacodylate, 0.5 mM EDTA, pH 7.0)
[6] = KCl buffer (15 mM KCl, 20 mM cacodylic acid, 20 mM Tris, 0.5 mM Na2EDTA, pH 7.0)

Row | Molecule | inhibitory effect on coupled in vitro transcription-translation (in words) [1] | ΔG° 50 [2, 3] | Tm [2, 4] | ΔG°37 [2, 4] | ΔH° [2, 4] | ΔS° [2, 4] | Tm [2, 5] | ΔG°37 [2, 5] | ΔH° [2, 5] | ΔS° [2, 5] | also measured
1 | [H]/N=C(/N)N[C@H]1[C@H](O)[C@@H](O)[C@H](O[C@@H]2O[C@@H](C)[C@](O)(C=O)[C@H]2O[C@@H]2O[C@@H](CO)[C@H](O)[C@@H](O)[C@@H]2NC)[C@@H](N/C(N)=N\[H])[C@@H]1O [Streptomycin, reference compound] | – | – | – | – | – | – | – | – | – | – | GFP translation with positive control ([1]; 300 μM): no GFP translation was observed
2 | CVRPFAL [compound 15, 7-mer peptide selected by phage display against helix 31 RNA] | greater inhibitory effects on in vitro protein synthesis than other peptides | – | – | – | – | – | – | – | – | – | inhibitory effect on coupled in vitro transcription-translation (in words) ([1]; listed as CVRPFAL): best inhibitory effects; also recorded: strong inhibitory effects
3 | DIRTQRE [compound 18, 7-mer peptide selected by phage display against helix 31 RNA] | did not inhibit transcription or translation even up to 2 mM; also recorded: least inhibitory effect | – | – | – | – | – | – | – | – | – | –
4 | ECh31M2G: 18-nt helix 31 RNA hairpin of E. coli 16S rRNA with m2G966 (rGrUrUrCrGrArUr[m2G]rCrArArCrGrCrGrArArC) | – | −0.7^a kcal/mol | 56 °C | -2.4 ± 0.1 kcal/mol | -41.9 ± 1.1 kcal/mol | −127.5 ± 3.2 cal/K · mol | – | – | – | – | –
5 | ECh31M5C: 18-nt helix 31 RNA hairpin of E. coli 16S rRNA with m5C967 (GUUCGAUGCAACGCGAAC; RNA, [5mC] at 9, all phosphodiester, methylation of C not given here) | – | −0.6^a kcal/mol | 55 °C | -2.2 ± 0.1 kcal/mol | -40.5 ± 0.9 kcal/mol | −123.3 ± 3.1 cal/K · mol | – | – | – | – | –
6 | ECh31UNMOD: 18-nt unmodified RNA hairpin representing helix 31 (U960-A975) of E. coli 16S rRNA (GUUCGAUGCAACGCGAAC; unmodified RNA) | – | −0.9^a kcal/mol | 57 °C | -2.6 ± 0.1 kcal/mol | -44.1 ± 1.0 kcal/mol | −133.8 ± 3.0 cal/K · mol | 57 °C | -2.6 ± 0.1 kcal/mol | -44.1 ± 1.0 kcal/mol | −133.8 ± 3.0 cal/K · mol | –
7 | ECh31WT: doubly modified (m2G966, m5C967) h31 analogue, wild-type sequence of E. coli 16S rRNA helix 31 (GUUCGAUGCAACGCGAAC; RNA, [m2G] at 8, [5mC] at 9, all phosphodiester, methylation of C not given here) | – | −0.5^a kcal/mol | 56 °C | -2.1 ± 0.1 kcal/mol | -37.5 ± 2.2 kcal/mol | −114.4 ± 5.8 cal/K · mol | 55.5 °C | -2.10 ± 0.07 kcal/mol | -37.26 ± 1.2 kcal/mol | −113.37 ± 3.6 cal/K · mol | Tm [2, 6]: 54.7 °C; ΔG°37 [2, 6]: -2.13 ± 0.03 kcal/mol; ΔH° [2, 6]: -39.37 ± 1.2 kcal/mol; ΔS° [2, 6]: −120.08 ± 3.8 cal/K · mol
8 | FVRPFAL [compound 16, 7-mer peptide selected by phage display against helix 31 RNA] | best inhibitory effects; also recorded: strong inhibitory effects | – | – | – | – | – | – | – | – | – | –
9 | HSh31UNMOD: unmodified human helix 31 RNA analogue with additional G-C base-pair (GUUUGACUCAACACGGGC; unmodified RNA) | – | – | – | – | – | – | 44 °C | -0.6 kcal/mol | -29.4 ± 1.6 kcal/mol | −92.8 ± 5.4 cal/K · mol | –
10 | TLWDLIP [compound 14, 7-mer peptide selected by phage display against helix 31 RNA] | greater inhibitory effects on in vitro protein synthesis than other peptides | – | – | – | – | – | – | – | – | – | –
